Biological target: T1, SOS1 protein (Homo sapiens, UniProt Q07889)
T1 sequence (Q07889 1-1333): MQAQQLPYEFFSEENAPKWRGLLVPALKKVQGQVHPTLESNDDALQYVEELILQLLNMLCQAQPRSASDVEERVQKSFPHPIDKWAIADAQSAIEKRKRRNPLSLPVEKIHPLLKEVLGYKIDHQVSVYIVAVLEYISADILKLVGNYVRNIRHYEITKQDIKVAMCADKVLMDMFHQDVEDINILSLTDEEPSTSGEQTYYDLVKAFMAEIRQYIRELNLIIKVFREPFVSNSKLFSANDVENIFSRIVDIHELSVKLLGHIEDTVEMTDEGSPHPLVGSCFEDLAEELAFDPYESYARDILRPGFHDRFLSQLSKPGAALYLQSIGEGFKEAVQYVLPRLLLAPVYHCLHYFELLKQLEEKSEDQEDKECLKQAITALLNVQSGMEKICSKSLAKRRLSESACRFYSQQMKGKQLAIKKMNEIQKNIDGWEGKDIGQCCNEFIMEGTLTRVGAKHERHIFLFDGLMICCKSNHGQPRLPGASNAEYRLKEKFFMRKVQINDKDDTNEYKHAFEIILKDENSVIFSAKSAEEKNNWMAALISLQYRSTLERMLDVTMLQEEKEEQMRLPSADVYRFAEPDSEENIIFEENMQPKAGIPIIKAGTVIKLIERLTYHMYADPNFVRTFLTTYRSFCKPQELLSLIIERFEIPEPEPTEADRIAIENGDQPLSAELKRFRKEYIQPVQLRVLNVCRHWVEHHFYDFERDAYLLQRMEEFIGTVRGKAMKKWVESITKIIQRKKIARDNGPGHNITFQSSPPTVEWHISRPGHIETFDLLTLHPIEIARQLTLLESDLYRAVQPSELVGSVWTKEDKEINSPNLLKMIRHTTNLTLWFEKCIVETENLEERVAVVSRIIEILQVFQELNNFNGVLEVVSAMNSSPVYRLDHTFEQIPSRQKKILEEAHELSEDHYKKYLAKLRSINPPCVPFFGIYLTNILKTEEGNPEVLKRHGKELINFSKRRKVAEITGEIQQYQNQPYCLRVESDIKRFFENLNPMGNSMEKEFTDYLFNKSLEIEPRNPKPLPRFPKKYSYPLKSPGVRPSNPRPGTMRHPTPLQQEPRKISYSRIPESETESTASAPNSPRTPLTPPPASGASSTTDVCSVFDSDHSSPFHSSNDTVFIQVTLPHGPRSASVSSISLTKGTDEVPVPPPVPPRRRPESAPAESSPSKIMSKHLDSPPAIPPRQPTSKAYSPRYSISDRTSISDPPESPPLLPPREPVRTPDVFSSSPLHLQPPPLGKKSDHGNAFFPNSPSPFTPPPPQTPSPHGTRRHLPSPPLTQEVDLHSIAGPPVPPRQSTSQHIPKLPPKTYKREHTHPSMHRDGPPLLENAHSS
Experiment: SOS1 degradation assay (Western blot), A-427 cells
Format: cell-based
Set-up: host or cells: A-427 (human cancer cell lines)
Conditions: 24 h; for DC50: read-out: A427 (G12D) DC50; for Dmax: read-out: A427 (G12D) Dmax
Procedure: The specific procedures were as follows:
0.95 mL of cells were seeded into each well of a 24-well cell culture plate to achieve a cell density of 5×10^5 cells/well; the cell plate was incubated in an incubator at 37° C. with 5% CO2 overnight. Then 50 μL of the compound solution after dilution was added to each of the wells with the corresponding cells, so that the final concentration of the compound was in a range of 0.03-3000 nM. […] After dosing, the cell plate was incubated in an incubator at 37° C. with 5% CO2 for 24 h. […] After the plate was left to stand on ice for 30 min, the protein lysate in each well was transferred to a 1.5 mL centrifuge tube and centrifuged at 15000 g for 20 min at 4° C. The cell lysate supernatant after centrifugation was cryopreserved at −80° C. for testing and was used for determining the degradation level of the SOS1 protein by a WB method. The concentration of total protein in the cell lysate supernatant was determined using the BCA Protein Quantification Kit (Tiangen, PA115-02).
The concentration of total protein in the cell lysate was determined by BCA. The total protein was adjusted to 0.5 μg/μL with PBS and 5× SDS-PAGE protein loading buffer (Beyotime, P0015L), incubated in a water bath at 100° C. for 15 min, incubated in an ice bath on ice for 5 min, centrifuged at 14000 g for 1 min at 4° C., and mixed well as a loading sample for WB. Protein electrophoresis was performed on a precast gel (KeyGEN, KGMGO10W15) with a loading volume of 10 μL (total protein: 5 μg) using a Tris-MOPS-SDS running solution (Adamas, P1598253) at a constant voltage of 120 V for 55 min. After the electrophoresis, the protein on the gel strip was transferred to a PVDF membrane at a constant current of 250 mA for 65 min. After the membrane transfer, the membrane was incubated in 1× QuickBlock blocking buffer (Beyotime, P0235) for 30 min at room temperature. […] The protein map was subjected to gray value analysis by the chemiluminescence imaging system from Clinx. […] Then the degradation rate was calculated by comparing the gray correction value with the gray correction value of the control group. Then nonlinear curve fitting was performed by GraphPad Prism 8 in the logarithmic concentration-inhibition rate to obtain the DC50 and Dmax values of the compounds.

| Structure (SMILES) | DC50 [nM] | Dmax [%] |
| --- | --- | --- |
| CNCc1ccccc1-c1csc([C@@H](C)Nc2nc(C)nc3cc(OC)c([C@H]4CC[C@H](C(=O)N5CCN(CC6CCC7(CC6)CCN(C(=O)c6ccc(OC)c(N8CCC(=O)NC8=O)c6)CC7)CC5)CC4)cc23)c1 [Example 73, 1-(2-methoxy-5-(9-((4-((1R,4R)-4-(7-methoxy-2-methyl-4-(((R)-1-(4-(2-((methylamino)methyl)phenyl)thien-2-yl)ethyl)amino)quinazolin-6-yl)cyclohexane-1-carbonyl)piperazin-1-yl)methyl)-3-azaspiro[5.5]undecane-3-carbonyl)phenyl)dihydropyrimidine-2,4(1H,3H)-dione] | < 50 | 80 to 100 |
| COc1cc2nc(C)nc(N[C@H](C)c3cc(N)cc(C(F)(F)F)c3)c2cc1[C@H]1CC[C@H](C(=O)N2CCN(CC3CCC4(CC3)CCN(C(=O)c3ccc(Cl)c(N5CCC(=O)NC5=O)c3)CC4)CC2)CC1 [Example 2, 1-(5-(9-((4-((1R,4R)-4-(4-(((R)-1-(3-amino-5-(trifluoromethyl)phenyl)ethyl)amino)-7-methoxy-2-methylquinazolin-6-yl)cyclohexane-1-carbonyl)piperazin-1-yl)methyl)-3-azaspiro[5.5]undecane-3-carbonyl)-2-chlorophenyl)dihydropyrimidine-2,4(1H,3H)-dione] | < 50 | 80 to 100 |
| COc1cc2nc(C)nc(N[C@H](C)c3cc(N)cc(C(F)(F)F)c3)c2cc1[C@H]1CC[C@H](C(=O)N2CCC(CCOCC3CCN(C(=O)c4ccc(Cl)c(N5CCC(=O)NC5=O)c4)CC3)CC2)CC1 [Example 19, 1-(5-(4-((2-(1-((1R,4R)-4-(4-(((R)-1-(3-amino-5-(trifluoromethyl)phenyl)ethyl)amino)-7-methoxy-2-methylquinazolin-6-yl)cyclohexane-1-carbonyl)piperidin-4-yl)ethoxy)methyl)piperidine-1-carbonyl)-2-chlorophenyl)dihydropyrimidine-2,4(1H,3H)-dione] | < 50 | 50 to 80 |
| COc1cc2nc(C)nc(N[C@H](C)c3cc(N)cc(C(F)(F)F)c3)c2cc1[C@H]1CC[C@H](C(=O)N2CCN(CCC3CCC4(CC3)CCN(C(=O)c3ccc(Cl)c(N5CCC(=O)NC5=O)c3)CC4)CC2)CC1 [Example 1, 1-(5-(9-(2-(4-((1R,4R)-4-(4-(((R)-1-(3-amino-5-(trifluoromethyl)phenyl)ethyl)amino)-7-methoxy-2-methylquinazolin-6-yl)cyclohexane-1-carbonyl)piperazin-1-yl)ethyl)-3-azaspiro[5.5]undecane-3-carbonyl)-2-chlorophenyl)dihydropyrimidine-2,4(1H,3H)-dione] | < 50 | 80 to 100 |
| COc1cc2nc(C)nc(N[C@H](C)c3cccc4c3CCS4(=O)=O)c2cc1[C@H]1CC[C@H](C(=O)N2CCN(CC3CCC4(CC3)CCN(C(=O)c3ccc(Cl)c(N5CCC(=O)NC5=O)c3)CC4)CC2)CC1 [Example 10, 1-(2-chloro-5-(9-((4-((1R,4R)-4-(4-(((R)-1-(1,1-dioxo-2,3-dihydrobenzo[b]thiophen-4-yl)ethyl)amino)-7-methoxy-2-methylquinazolin-6-yl)cyclohexane-1-carbonyl)piperazin-1-yl)methyl)-3-azaspiro[5.5]undecane-3-carbonyl)phenyl)dihydropyrimidine-2,4(1H,3H)-dione] | < 50 | 80 to 100 |
| COc1cc2nc(C)nc(N[C@H](C)c3cc(N)cc(C(F)(F)F)c3)c2cc1[C@H]1CC[C@H](C(=O)N2CCN(CCOCC3CCN(C(=O)c4ccc(Cl)c(N5CCC(=O)NC5=O)c4)CC3)CC2)CC1 [Example 33, 1-(5-(4-((2-(4-((1R,4R)-4-(4-(((R)-1-(3-amino-5-(trifluoromethyl)phenyl)ethyl)amino)-7-methoxy-2-methylquinazolin-6-yl)cyclohexane-1-carbonyl)piperazin-1-yl)ethoxy)methyl)piperidine-1-carbonyl)-2-chlorophenyl)dihydropyrimidine-2,4(1H,3H)-dione] | < 50 | 80 to 100 |

From patent US20240261417A1, “SOS1 DEGRADING AGENT AND PREPARATION METHOD THEREFOR AND APPLICATION THEREOF” (SHANGHAI LEADINGTAC PHARMACEUTICAL CO. LTD., priority 2021, published 2024)
